2 compounds from patent US11602534B2, “Pyrimidine derivative kinase inhibitors” (HEFEI INSTITUTES OF PHYSICAL SCIENCE, CHINESE ACADEMY OF …, priority 2017, dated 2023) can be followed below.

Some results are limits rather than exact numbers.

One assay deals with P210-BaF3. As to the kind of experiment: Proliferation of P210-BaF3 cells, CCK8 cell viability assay. The assay is classed as cell-based. To be noted: Mus musculus, 72 hours, stably expressing BCR-ABL mutant activated kinase. Summed up:
(§1)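 Human kinase-region sequences were PCR-amplified, fused behind N-terminal TEL in MSCV-Puro and stably introduced into mouse BaF3 by retrovirus. IL-3 was then removed to give kinase-dependent lines. Compound effects on these and on parental BaF3 are scored as GI50 (μM) via CCK8 viable-cell quantification.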

In assay [1] the test system is human acute myeloid leukemia cell strain OCI-AML-3. As to the kind of experiment: Proliferation of OCI-AML-3 cells, Cell Titer-Glo. The assay is classed as cell-based. The following applies: 72 hours, FLT3 A680V. The procedure:
(§2) In addition, in this example the inhibitory activity of preferred compounds (Compound 5 and Compound 135) was tested against the following cell strains: human acute myeloid leukemia cell strain MV4-11 (expressing FLT3/ITD mutant gene), human acute myeloid leukemia cell strain MOLM-13 (expressing FLT3/ITD mutant gene and wild-type FLT3 gene), human acute myeloid leukemia cell strain MOLM-14 (expressing FLT3/ITD mutant gene and wild-type FLT3 gene), human acute myeloid leukemia cell strain OCI-AML-3 (expressing FLT3 A680V mutant gene), human chronic lymphatic leukemia cell strain MEC-1, Chinese hamster lung (CHL) cells, Chinese hamster ovary (CHO) cells, wherein all the cells were purchased from ATCC. In the example the compounds of the present invention were added respectively into the above cells at different concentrations (0.000508 μM, 0.00152 μM, 0.00457 μM, 0.0137 μM, 0.0411 μM, 0.123 μM, 0.370 μM, 1.11 μM, 3.33 μM, 10 μM in DMSO) and the cells were incubated for 72 hours. The number of viable cells was determined by quantification of ATP in living cells using Cell Titer-Glo® (Promega, the USA) Luminescent Cell Viability Assay kit and thereby GI50 was calculated.
Background: Cellular ATP, detected with luciferase, serves as a proxy for viable cell number.

Assay [2] relates to human chronic lymphatic leukemia cell strain MEC-1. In words: Proliferation of MEC-1 cells, Cell Titer-Glo. The following applies: MEC1, 72 hours. The assay is classed as cell-based. As for the experimental part:
as §2

The subject of a further assay is P210/T315I-BaF3. As to the kind of experiment: Proliferation of P210/T315I-BaF3 cells, CCK8 cell viability assay. The assay is classed as cell-based. The following applies: Mus musculus, 72 hours, stably expressing BCR-ABL/T315I. Summed up: as §1
In general terms: Tetrazolium assays rely on reduction of a dye to a coloured formazan, in cell work by metabolically active cells.

The subject of another assay is TEL-PDGFRα-BaF3. In words: Proliferation of TEL-PDGFRα-BaF3 cells, CCK8 cell viability assay. The assay is classed as cell-based. To be noted: Mus musculus, 72 hours, stably expressing PDGFRα kinase. The gist of the method:
(§3)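 GI50 (μM) from CCK8 read-out, which measures reductive dehydrogenase activity in living cells. Cells: parental mouse BaF3, or BaF3 stably expressing TEL-fused human cKIT, PDGFRα or PDGFRβ kinase domains and grown without IL-3, making them kinase-dependent.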

The subject of assay [3] is Chinese hamster lung (CHL) cells. In words: cells. The following applies: Cricetulus griseus, 72 hours, Cell Titer-Glo. The assay is classed as cell-based. As for the experimental part:
as §2

In assay [4] the test system is Chinese hamster ovary (CHO) cells. As to the kind of experiment: cells. The assay is classed as cell-based. To be noted: Cricetulus griseus, 72 hours, Cell Titer-Glo. As for the experimental part: as §2
In another assay the test system is Tel-cKit-BaF3. In words: Proliferation of Tel-cKit-BaF3 cells, CCK8 cell viability assay. The assay is classed as cell-based, mouse. To be noted: Mus musculus; 72 hours, CCK8; stably expressing cKIT kinase. The gist of the method: as §3

As a reminder, the GI50 is the concentration that inhibits growth by half.

`CC(=O)Nc1cc(Oc2ccc(NC(=O)Cc3ccccc3C(F)(F)F)cc2)ncn1` [Example 135, N-[4-(6-acetylamino-pyrimidin-4-yloxy)-phenyl]-2-(2-trifluoromethyl-phenyl)-acetamide]: the 50% growth inhibitory concentration (GI50) was greater than 10 µM in the assay with P210-BaF3; greater than 10 µM in assay [1]; greater than 10 µM in assay [2]; greater than 10 µM in the assay with P210/T315I-BaF3; 0.007 µM in the assay on TEL-PDGFRα-BaF3; greater than 10 µM in assay [3]. The 50% growth inhibitory concentration (GI50) (in assay [4]; with Tel-cKit-BaF3) was greater than 10 µM throughout.

Consider `CC(=O)Nc1cc(Oc2ccc(NC(=O)Cc3ccc(F)cc3F)cc2)ncn1` [Example 5, N-[4-(6-acetylamino-pyrimidin-4-yloxy)-phenyl]-2-(2,4-difluoro-phenyl)-acetamide], for which the 50% growth inhibitory concentration (GI50) in the assay with P210-BaF3 is greater than 10 µM; in assay [1] it was greater than 10 µM; in assay [2], greater than 10 µM; in the assay with TEL-PDGFRα-BaF3, 0.014 µM; in assay [3], greater than 10 µM; in assay [4], greater than 10 µM. Also, in the assay on Tel-cKit-BaF3, the GI50 worked out at 5.6 µM.
